# Measurements as given in article doi:10.1101/2025.06.19.660642, “Discovery of orally bioavailable Zika and West Nile Virus antiviral compounds targeting the NS2B-NS3 protease” (bioRxiv, 2025).
# Where two headings read alike, the source gives them in different places.
# Assays:
# ZIKV NS2B-NS3 protease = molecular target: T1, ZIKV NS2B-NS3 protease (Zika virus, UniProt A0A024B7W1); assay: ZIKV NS2B-NS3 protease biochemical FRET assay; settings: for Ligand efficiency (LE): Ligand efficiency = pKi / heavy atom count
# T1 construct: directed at the co-expressed ZIKV NS2B-NS3 protease
# WNV NS2B-NS3 protease = molecular target: T2, WNV NS2B-NS3 protease (West Nile virus, UniProt P06935); assay: WNV NS2B-NS3 protease biochemical inhibition
# T2 construct: some activity against the WNV NS2B-NS3 protease
# MDR1-MDCK permeability = type: in vitro ADME; settings: dog; for Papp A→B: MDCK-MDR1, A→B; for Papp B→A: MDCK-MDR1, B→A
# Procedure: (§1) Figure 5. (A) Further characterization of ASAP-0027808. Papp was determined in MDR1-MDCK cells. Antiviral assays were performed in Vero E6 cells in a 7-day infection using 0.5 uM CP100356 as a P-gp inhibitor (see Supporting Information for more details). (B) The compound was successfully crystallized with ZIKV NS2B-NS3. ASAP-0016806 and ASAP-0027808 both appear to interact with the same residues (catalytic triad His51/Asp75/Ser135 colored yellow, other key residues Tyr161, NS2B Ser81, and NS2B Asp83 colored green). (C) Dose-dependent suppression of ZIKV-induced cytopathy in VeroE6 cells (n=2); no changes to cell viability of uninfected cells treated with the inhibitor was observed. Cells were co-treated with 0.5 μM CP100356 (as P-gp inhibitor). TEXT PRINTED IN THE PICTURE: (A) ASAP-0027808: ZIKV NS2B-NS3 Ki (μM): 0.090; ZIKV EC50 / CC50 (μM): 4.6 / >50; WNV NS2B-NS3 Ki (μM): 2.9; MW (g/mol): 313; CLint,app, HLM (μL/min/mg): < 10; MDR1-MDCK Papp A→B, B→A (10^-6 cm/sec): 2.0 ,11.0; Kinetic solubility (pH 7.4, μM): 279; LogD: 0.9
# urokinase = molecular target: T3, urokinase (Homo sapiens, UniProt P00749); assay: Eurofins human protease selectivity panel; type: biochemical; settings: read-out: inhibitory activity against urokinase
# T3 construct: Eurofins
# Excerpt: Upon crystallization in the active site of ZIKV NS2B-NS3, we noted the compound participating with most of the same residues as ASAP-0016806 (Figure 5B): an aromatic interaction with Tyr161, a hydrogen-bonding interaction with Gly151, an aromatic interaction with His51, and an electrostatic interaction with Asp83 (with a possible additional hydrogen bonding interaction to Ser81).
# ZIKV = ZIKV antiviral assay (virus-induced cytopathy) in Vero E6 cells with P-gp inhibitor; type: cell-based; settings: Zika virus, Vero C1008, 168 h, read-out: ZIKV EC50
# Procedure: as §1
# Kinetic solubility = settings: pH 7.4
# [1] = Microsomal clearance, HLM; settings: human, microsomes
# [2] = Cytotoxicity in uninfected Vero E6 cells; type: cell-based; settings: African green monkey; Vero E6 cells, 0.5 uM CP100356 as P-gp inhibitor; read-out: CC50
# Procedure: as §1
# Vero E6 cells = assay: Cytotoxicity in uninfected Vero E6 cells; type: cell-based; settings: Vero E6 cells treated with a P-gp inhibitor, up to 50 μM
# Procedure: as §1
# [3] = ZIKV NS2B-NS3 Ki (uM), library 1, supplement
# [4] = library 1, supplement, read-out: ZIKV NS2B-NS3 Ki
# T1 sequence (A0A024B7W1 1503-1680): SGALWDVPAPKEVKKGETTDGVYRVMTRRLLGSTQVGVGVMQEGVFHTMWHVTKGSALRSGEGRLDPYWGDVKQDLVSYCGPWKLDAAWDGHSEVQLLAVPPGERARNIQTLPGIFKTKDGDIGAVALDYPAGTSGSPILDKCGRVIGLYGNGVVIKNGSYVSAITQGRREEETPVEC
# T1 sequence (A0A024B7W1 1425-1464): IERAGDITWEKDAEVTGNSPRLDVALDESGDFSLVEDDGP
# T2 sequence (P06935 1424-1463): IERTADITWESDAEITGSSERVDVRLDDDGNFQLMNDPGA
# T2 sequence (P06935 1502-1679): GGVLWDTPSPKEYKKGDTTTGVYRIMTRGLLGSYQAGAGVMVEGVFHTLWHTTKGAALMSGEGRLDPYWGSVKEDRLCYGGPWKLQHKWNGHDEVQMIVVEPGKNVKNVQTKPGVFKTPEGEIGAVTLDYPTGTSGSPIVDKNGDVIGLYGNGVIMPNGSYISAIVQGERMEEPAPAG
structure (smiles),measurement,setting,value
N#C[C@@H](Nc1ccc2c(c1)CNC2)c1cc(Cl)cc2[nH]ncc12 [ASAP-0028904],Ki,ZIKV NS2B-NS3 protease; ZIKV NS2B-NS3 Ki,0.1 µM
same,Ki,WNV NS2B-NS3 protease,18 µM
same,logD,LogD,0.9
same,Papp A→B,MDR1-MDCK permeability,1.1 ×10⁻⁶ cm/s
OCC#C[C@@H](Nc1ccc2c(c1)CNC2)c1cc(Cl)cc2[nH]ncc12 [ASAP-0028990],Ki,ZIKV NS2B-NS3 protease; ZIKV NS2B-NS3 Ki,0.99 µM
same,Ki,WNV NS2B-NS3 protease,21 µM
same,logD,LogD,0.5
same,Papp A→B,MDR1-MDCK permeability,0.59 ×10⁻⁶ cm/s
O=C(Nc1ccc2c(c1)CNC2)c1cc(Cl)cc2[nH]ncc12 [ASAP-0027808],Ligand efficiency (LE),ZIKV NS2B-NS3 protease,0.452
same,Ki,ZIKV NS2B-NS3 protease; ZIKV NS2B-NS3 Ki,0.09 µM
same,Ki,WNV NS2B-NS3 protease,2.9 µM
same,inhibition at 10 µM,urokinase,21%
same,EC50,ZIKV,4.6 µM
same,Kinetic solubility,Kinetic solubility,279 µM
same,microsomal CLint,[1],< 10 µL/min/mg
same,logD,LogD,0.9
same,Papp A→B,MDR1-MDCK permeability,2 ×10⁻⁶ cm/s
same,Papp B→A,MDR1-MDCK permeability,11 ×10⁻⁶ cm/s
same,CC50,[2],> 50 µM
same,cytotoxicity,Vero E6 cells,no apparent cytotoxicity
"O=C(Nc1cc(Cl)cc(C(=O)Nc2ccnc(OC3CNC3)c2)c1)OCc1ccccc1 [ASAP-0021594, O=C(Nc1cc(Cl)cc(C(=O)Nc2ccnc(OC3CNC3)c2)c1)OCc1ccccc1]",Ki,ZIKV NS2B-NS3 protease; [3],59.3 µM
Cc1cc(C(Nc2ccc3c(c2)CNC3)C(=O)NCC(F)F)cc(C(F)(F)F)c1 (centres unmarked) [ASAP-0031651],Ki,"ZIKV NS2B-NS3 protease; Ki, ZIKV NS2B-NS3",0.0078 µM
same,EC50,ZIKV,0.45 µM
"NC[C@H]1CC[C@H](NC(=O)c2cc(Cl)cc(NC(=O)OCc3ccccc3)c2)CC1 [ASAP-0017626, NC[C@H]1CC[C@H](NC(=O)c2cc(Cl)cc(NC(=O)OCc3ccccc3)c2)CC1]",Ki,ZIKV NS2B-NS3 protease; [3],> 89.3 µM
"NCCc1cccc(NC(=O)c2cc(Cl)cc(NC(=O)OCc3ccccc3)c2)c1 [ASAP-0017670, NCCc1cccc(NC(=O)c2cc(Cl)cc(NC(=O)OCc3ccccc3)c2)c1]",Ki,ZIKV NS2B-NS3 protease; [3],3.51 µM
"NCc1ccc(F)c(NC(=O)c2cc(Cl)cc(NC(=O)OCc3ccccc3)c2)c1 [ASAP-0021403, NCc1ccc(F)c(NC(=O)c2cc(Cl)cc(NC(=O)OCc3ccccc3)c2)c1]",Ki,"ZIKV NS2B-NS3 protease; ZIKV NS2B-NS3 pKi, library 1, supplement",3.89 µM
"C[C@@H](N)c1cccc(NC(=O)c2cc(Cl)cc(NC(=O)OCc3ccccc3)c2)c1 [ASAP-0021650, C[C@@H](N)c1cccc(NC(=O)c2cc(Cl)cc(NC(=O)OCc3ccccc3)c2)c1]",Ki,ZIKV NS2B-NS3 protease; [3],20.4 µM
"CN1CCn2nc(NC(=O)c3cc(Cl)cc(NC(=O)OCc4ccccc4)c3)cc2C1 [ASAP-0020900, CN1CCn2nc(NC(=O)c3cc(Cl)cc(NC(=O)OCc4ccccc4)c3)cc2C1]",Ki,ZIKV NS2B-NS3 protease; [3],> 89.3 µM
"NCc1cn(CCNC(=O)c2cc(Cl)cc(NC(=O)OCc3ccccc3)c2)nn1 [ASAP-0021085, NCc1cn(CCNC(=O)c2cc(Cl)cc(NC(=O)OCc3ccccc3)c2)nn1]",Ki,ZIKV NS2B-NS3 protease; [3],> 89.3 µM
"C[C@@H](N)c1ccc(NC(=O)c2cc(Cl)cc(NC(=O)OCc3ccccc3)c2)cc1 [ASAP-0017733, C[C@@H](N)c1ccc(NC(=O)c2cc(Cl)cc(NC(=O)OCc3ccccc3)c2)cc1 ¦&1:1¦]",ZIKV NS2B-NS3 pKi,"ZIKV NS2B-NS3 protease; library 1, supplement",4.88
same,Ki,ZIKV NS2B-NS3 protease; [4],13.1 µM
CC(C)NC(=O)[C@@H](Nc1ccc2c(c1)CNC2)c1cc(Cl)cc2[nH]ncc12 [ASAP-0029000],Ki,ZIKV NS2B-NS3 protease; ZIKV NS2B-NS3 Ki,0.077 µM
same,Ki,WNV NS2B-NS3 protease,0.32 µM
same,logD,LogD,0.5
same,Papp B→A,MDR1-MDCK permeability,2.2 ×10⁻⁶ cm/s
"O=C(Nc1cc(Cl)cc(C(=O)NCCC2COCCN2)c1)OCc1ccccc1 (centres unmarked) [ASAP-0022490, O=C(NC1=CC(Cl)=CC(C(=O)NCC[C@H]2COCCN2)=C1)OCC1=CC=CC=C1 ¦&1:14¦]",Ki,ZIKV NS2B-NS3 protease; [3],> 89.3 µM
CC(C)NC(=O)[C@@H](Nc1ccc2c(c1)CNC2)c1cc(Cl)cc2[nH]ncc12 [ASAP-0029974],Ki,ZIKV NS2B-NS3 protease; ZIKV NS2B-NS3 Ki,0.048 µM
same,Ki,WNV NS2B-NS3 protease,0.36 µM
same,EC50,ZIKV,5.7 µM
same,logD,LogD,0.5
same,CC50,[2],> 50 µM
"CC(C)N1CCc2nc(NC(=O)c3cc(Cl)cc(NC(=O)OCc4ccccc4)c3)sc2C1 [ASAP-0020812, CC(C)N1CCc2nc(NC(=O)c3cc(Cl)cc(NC(=O)OCc4ccccc4)c3)sc2C1]",Ki,ZIKV NS2B-NS3 protease; [3],> 89.3 µM
"O=C(Nc1cc(Cl)cc(C(=O)Nc2nccn2C2CNC2)c1)OCc1ccccc1 [ASAP-0021559, O=C(Nc1cc(Cl)cc(C(=O)Nc2nccn2C2CNC2)c1)OCc1ccccc1]",Ki,ZIKV NS2B-NS3 protease; [3],> 89.3 µM
CC(C)NC(=O)[C@@H](Nc1ccc2c(c1)CN(C)C2)c1cc(Cl)cc2[nH]ncc12 [ASAP-0031156],Ki,ZIKV NS2B-NS3 protease; ZIKV NS2B-NS3 Ki,0.48 µM
same,Ki,WNV NS2B-NS3 protease,1.6 µM
"NCc1ccc(O)c(NC(=O)c2cc(Cl)cc(NC(=O)OCc3ccccc3)c2)c1 [ASAP-0021142, NCc1ccc(O)c(NC(=O)c2cc(Cl)cc(NC(=O)OCc3ccccc3)c2)c1]",Ki,ZIKV NS2B-NS3 protease; [3],16.3 µM
"Cc1cc(CN)cc(NC(=O)c2cc(Cl)cc(NC(=O)OCc3ccccc3)c2)c1 [ASAP-0021201, Cc1cc(CN)cc(NC(=O)c2cc(Cl)cc(NC(=O)OCc3ccccc3)c2)c1]",Ki,ZIKV NS2B-NS3 protease; [3],4.63 µM
"NCCNC(=O)c1cc(Cl)cc(NC(=O)OCc2ccccc2)c1 [ASAP-0017736, NCCNC(=O)c1cc(Cl)cc(NC(=O)OCc2ccccc2)c1]",Ki,ZIKV NS2B-NS3 protease; [3],> 89.3 µM
NCc1cccc(NC(=O)c2cc(Cl)cc3[nH]ncc23)c1 [ASAP-0023261],Ligand efficiency (LE),ZIKV NS2B-NS3 protease,0.407
same,Ki,ZIKV NS2B-NS3 protease; ZIKV NS2B-NS3 Ki,0.796 µM
"NCc1ccc(CNC(=O)c2cc(Cl)cc(NC(=O)OCc3ccccc3)c2)c(F)c1 [ASAP-0021676, NCc1ccc(CNC(=O)c2cc(Cl)cc(NC(=O)OCc3ccccc3)c2)c(F)c1]",Ki,ZIKV NS2B-NS3 protease; [3],29.5 µM
"O=C(Nc1cc(Cl)cc(C(=O)Nc2n[nH]c3c2CNC32CC2)c1)OCc1ccccc1 [ASAP-0021028, O=C(Nc1cc(Cl)cc(C(=O)Nc2n[nH]c3c2CNC32CC2)c1)OCc1ccccc1]",Ki,ZIKV NS2B-NS3 protease; [3],> 89.3 µM
"O=C(Nc1cc(Cl)cc(C(=O)Nc2cnc3n2CCNC3)c1)OCc1ccccc1 [ASAP-0021001, O=C(Nc1cc(Cl)cc(C(=O)Nc2cnc3n2CCNC3)c1)OCc1ccccc1]",Ki,ZIKV NS2B-NS3 protease; [3],> 89.3 µM
CN(C)Cc1ccc(C(=O)Nc2cc(Cl)cc(C(=O)NC(C)(C)CO)c2)[nH]1 [ASAP-0015373],inhibition at 100 µM,ZIKV NS2B-NS3 protease; read-out: inhibition in biochemical assay,30%
"O=C(Nc1cc(Cl)cc(C(=O)NC[C@H]2CNC3(CC3)CO2)c1)OCc1ccccc1 [ASAP-0021445, O=C(Nc1cc(Cl)cc(C(=O)NC[C@H]2CNC3(CC3)CO2)c1)OCc1ccccc1 ¦&1:13¦]",ZIKV NS2B-NS3 pKi,"ZIKV NS2B-NS3 protease; library 1, supplement",< 4.05
same,Ki,ZIKV NS2B-NS3 protease; [4],> 89.3 µM
"Cc1c(CN)cccc1NC(=O)c1cc(Cl)cc(NC(=O)OCc2ccccc2)c1 [ASAP-0021118, Cc1c(CN)cccc1NC(=O)c1cc(Cl)cc(NC(=O)OCc2ccccc2)c1]",Ki,ZIKV NS2B-NS3 protease; [3],40.1 µM
"O=C(Nc1cc(Cl)cc(C(=O)Nc2nc3c(s2)CNC3)c1)OCc1ccccc1 [ASAP-0021026, O=C(Nc1cc(Cl)cc(C(=O)Nc2nc3c(s2)CNC3)c1)OCc1ccccc1]",Ki,ZIKV NS2B-NS3 protease; [3],76.9 µM
"O=C(Nc1cc(Cl)cc(C(=O)NC[C@@H]2CNCCC2(F)F)c1)OCc1ccccc1 [ASAP-0021511, O=C(Nc1cc(Cl)cc(C(=O)NC[C@@H]2CNCCC2(F)F)c1)OCc1ccccc1 ¦&1:13¦]",ZIKV NS2B-NS3 pKi,"ZIKV NS2B-NS3 protease; library 1, supplement",< 4.05
same,Ki,ZIKV NS2B-NS3 protease; [4],> 89.3 µM
"Cn1nc2c(c1NC(=O)c1cc(Cl)cc(NC(=O)OCc3ccccc3)c1)CCNC2 [ASAP-0021390, Cn1nc2c(c1NC(=O)c1cc(Cl)cc(NC(=O)OCc3ccccc3)c1)CCNC2]",Ki,ZIKV NS2B-NS3 protease; [3],> 89.3 µM
Clc1cc(CNc2ccc3c(c2)CNC3)c2cn[nH]c2c1 [ASAP-0029525],Ki,ZIKV NS2B-NS3 protease; ZIKV NS2B-NS3 Ki,2.9 µM
same,Ki,WNV NS2B-NS3 protease,43 µM
same,EC50,ZIKV,17.9 µM
same,CC50,[2],29.8 µM
